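All cell lines were grown in 96-well plates and treated with compound for 48 hours. The concentration for 50% growth inhibition is given as GI50. TGI: total growth inhibition.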
Tests used:
Test in all cases: NCI anticancer screen, dose series, 48 h
786-0 renal = tested on: 786-0 renal
A498 renal = tested on: A498 renal
A549 NSCLC = tested on: A549 NSCLC
ACHN renal = tested on: ACHN renal
BT-549 breast = tested on: BT-549 breast
CAKI-1 renal = tested on: CAKI-1 renal
CCRF-CEM leukemia = tested on: CCRF-CEM leukemia
COLO 205 colon = tested on: COLO 205 colon
DU-145 prostate = tested on: DU-145 prostate
EKVX NSCLC = tested on: EKVX NSCLC
HCC-2998 colon = tested on: HCC-2998 colon
HCT-116 colon = tested on: HCT-116 colon
HCT-15 colon = tested on: HCT-15 colon
HL-60(TB) leukemia = tested on: HL-60(TB) leukemia
HOP-62 NSCLC = tested on: HOP-62 NSCLC
HOP-92 NSCLC = tested on: HOP-92 NSCLC
HS 578T breast = tested on: HS 578T breast
HT29 colon = tested on: HT29 colon
IGROV1 ovarian = tested on: IGROV1 ovarian
K-562 leukemia = tested on: K-562 leukemia
KM12 colon = tested on: KM12 colon
LOX IMVI melanoma = tested on: LOX IMVI melanoma
M14 melanoma = tested on: M14 melanoma
MALME-3M melanoma = tested on: MALME-3M melanoma
MCF7 breast = tested on: MCF7 breast
MDA-MB-231 breast = tested on: MDA-MB-231 breast
MDA-MB-435 = tested on: MDA-MB-435
MOLT-4 leukemia = tested on: MOLT-4 leukemia
NCI-H226 lung = tested on: NCI-H226 lung
NCI-H23 lung = tested on: NCI-H23 lung
NCI-H460 lung = tested on: NCI-H460 lung
NCI-H522 lung = tested on: NCI-H522 lung
NCI/ADR-RES ovarian = tested on: NCI/ADR-RES ovarian
OVCAR-3 ovarian = tested on: OVCAR-3 ovarian
OVCAR-4 ovarian = tested on: OVCAR-4 ovarian
OVCAR-5 ovarian = tested on: OVCAR-5 ovarian
OVCAR-8 ovarian = tested on: OVCAR-8 ovarian
PC-3 prostate = tested on: PC-3 prostate
RPMI-8226 leukemia = tested on: RPMI-8226 leukemia
RXF 393 renal = tested on: RXF 393 renal
SF-268 CNS = tested on: SF-268 CNS
SF-295 CNS = tested on: SF-295 CNS
SF-539 CNS = tested on: SF-539 CNS
SK-MEL-2 melanoma = tested on: SK-MEL-2 melanoma
SK-MEL-28 melanoma = tested on: SK-MEL-28 melanoma
SK-MEL-5 melanoma = tested on: SK-MEL-5 melanoma
SK-OV-3 ovarian = tested on: SK-OV-3 ovarian
SN12C renal = tested on: SN12C renal
SNB-19 CNS = tested on: SNB-19 CNS
SNB-75 CNS = tested on: SNB-75 CNS
SR leukemia = tested on: SR leukemia
SW-620 colon = tested on: SW-620 colon
T-47D breast = tested on: T-47D breast
TK-10 renal = tested on: TK-10 renal
U251 CNS = tested on: U251 CNS
UACC-257 melanoma = tested on: UACC-257 melanoma
UACC-62 melanoma = tested on: UACC-62 melanoma
UO-31 renal = tested on: UO-31 renal

## CCN(CC)c1ccc(/C=N/NC(=O)c2ccc(S(C)(=O)=O)cc2)c(O)c1
786-0 renal
  GI50: 0.246 µM
  TGI: > 100 µM
A498 renal
  GI50: 4.98 µM
  TGI: > 100 µM
A549 NSCLC
  GI50: 0.542 µM
  TGI: > 100 µM
ACHN renal
  GI50: 0.179 µM
  TGI: > 100 µM
BT-549 breast
  GI50: 0.596 µM
  TGI: > 39.9 µM
CAKI-1 renal
  GI50: 0.199 µM
  TGI: > 100 µM
CCRF-CEM leukemia
  GI50: 0.0825 µM
  TGI: > 100 µM
COLO 205 colon
  GI50: 0.297 µM
  TGI: > 100 µM
DU-145 prostate
  GI50: 0.308 µM
  TGI: > 100 µM
EKVX NSCLC
  GI50: 0.222 µM
  TGI: > 100 µM
HCC-2998 colon
  GI50: 0.292 µM
  TGI: > 100 µM
HCT-116 colon
  GI50: 0.186 µM
  TGI: > 100 µM
HCT-15 colon
  GI50: 0.12 µM
  TGI: > 100 µM
HL-60(TB) leukemia
  GI50: 0.288 µM
  TGI: 3.01 µM
HOP-62 NSCLC
  GI50: 0.156 µM
  TGI: > 57.9 µM
HOP-92 NSCLC
  GI50: 0.439 µM
  TGI: 32.9 µM
HS 578T breast
  GI50: 6.44 µM
  TGI: > 100 µM
HT29 colon
  GI50: 0.469 µM
  TGI: > 100 µM
IGROV1 ovarian
  GI50: 0.292 µM
  TGI: > 100 µM
K-562 leukemia
  GI50: 0.9 µM
  TGI: > 100 µM
KM12 colon
  GI50: 0.418 µM
  TGI: > 100 µM
LOX IMVI melanoma
  GI50: 0.15 µM
  TGI: 2.76 µM
M14 melanoma
  GI50: 0.21 µM
  TGI: 2.45 µM
MALME-3M melanoma
  GI50: 0.491 µM
  TGI: > 82.4 µM
MCF7 breast
  GI50: 0.3 µM
  TGI: > 100 µM
MDA-MB-231 breast
  GI50: 0.347 µM
  TGI: > 100 µM
MDA-MB-435
  GI50: 0.605 µM
  TGI: > 100 µM
MOLT-4 leukemia
  GI50: 0.253 µM
  TGI: > 100 µM
NCI-H226 lung
  GI50: 0.174 µM
  TGI: 5.19 µM
NCI-H23 lung
  GI50: 0.537 µM
  TGI: > 100 µM
NCI-H460 lung
  GI50: 0.179 µM
  TGI: 16 µM
NCI-H522 lung
  GI50: 0.455 µM
  TGI: > 100 µM
NCI/ADR-RES ovarian
  GI50: 0.467 µM
  TGI: > 44.4 µM
OVCAR-3 ovarian
  GI50: 0.177 µM
  TGI: > 100 µM
OVCAR-4 ovarian
  GI50: 0.139 µM
  TGI: > 80.3 µM
OVCAR-5 ovarian
  GI50: 2.86 µM
  TGI: > 100 µM
OVCAR-8 ovarian
  GI50: 0.32 µM
  TGI: > 69.5 µM
PC-3 prostate
  GI50: 0.409 µM
  TGI: > 100 µM
RPMI-8226 leukemia
  GI50: 0.399 µM
  TGI: > 100 µM
RXF 393 renal
  GI50: 0.452 µM
  TGI: > 62.1 µM
SF-268 CNS
  GI50: 0.167 µM
  TGI: > 100 µM
SF-295 CNS
  GI50: 0.259 µM
  TGI: > 100 µM
SF-539 CNS
  GI50: 0.287 µM
  TGI: 12 µM
SK-MEL-2 melanoma
  GI50: 0.777 µM
  TGI: > 100 µM
SK-MEL-28 melanoma
  GI50: 0.362 µM
  TGI: > 100 µM
SK-MEL-5 melanoma
  GI50: 0.33 µM
  TGI: 2.49 µM
SK-OV-3 ovarian
  GI50: 0.251 µM
  TGI: 57.8 µM
SN12C renal
  GI50: 0.415 µM
  TGI: > 100 µM
SNB-19 CNS
  GI50: 0.56 µM
  TGI: > 100 µM
SNB-75 CNS
  GI50: 0.292 µM
  TGI: > 29.3 µM
SR leukemia
  GI50: 0.0972 µM
  TGI: > 100 µM
SW-620 colon
  GI50: 0.438 µM
  TGI: > 100 µM
T-47D breast
  GI50: 0.444 µM
  TGI: > 100 µM
TK-10 renal
  GI50: 0.356 µM
  TGI: > 100 µM
U251 CNS
  GI50: 0.238 µM
  TGI: > 41 µM
UACC-257 melanoma
  GI50: 0.34 µM
  TGI: 5.6 µM
UACC-62 melanoma
  GI50: 0.306 µM
  TGI: 15.1 µM
UO-31 renal
  GI50: 0.2 µM
  TGI: 3.49 µM

From PubChem BioAssay (NCI)
